Assay results reported in patent US20240091215A1, “TASQUINIMOD OR A PHARMACEUTICALLY ACCEPTABLE SALT THEREOF FOR USE IN THE TREATMENT OF MYELODYSPLASTIC SYNDROME” (ACTIVE BIOTECH AB, priority 2021, published 2024).

Experiments:
PD-1 = PD-1 expression (RT-PCR) in MSC/HSPC co-cultures; assay type: cell-based, human; settings: summary statement; PD-1 measured in co-cultured HSPCs
Procedure: (§1) To mimic inflammatory conditions, in-vitro cultured MSCs were treated with recombinant S100A8, S100A9 or the S100A8/9 heterodimer (each 1.5 μg/ml) or TNF-α (10 ng/ml) in the presence or absence of tasquinimod (10 μM) for different time periods depending on the subsequent experiments. Hematopoietic stem and progenitor cells (HSPCs) for cocultures were isolated using CD34 antibody-conjugated magnetic beads, according to the manufacturer's instructions (Miltenyi Biotec) and were added in CellGro medium (CellGenix) containing stem cell factor (SCF), FLT3-L and IL-3 (10 ng/ml each).
[…] Relative target quantity was determined using the comparative CT (ΔΔCT) method. RT-PCR was performed using SYBR Green/ROX PCR master mix (Thermo) and target specific primers for caspasel, IL1β, IL18, PD-L1, PD-1 and GAPDH as housekeeping gene on a Taqman™ Fast 3500 cycler (Applied Biosystems). Amplicons were normalized to endogenous GAPDH control.

MDS MSCs = experiment: MSC differentiation assays (adipogenic, osteogenic); assay type: cell-based, human
Procedure: Adipogenic and osteogenic differentiation capacity is an important functional feature of MSCs and often altered in MDS leading to changes in the bone metabolism. Therefore, the effect of tasquinimod on adipogenic and osteogenic differentiation was assayed as follows.
MSCs were seeded in 6-well plates (5×10^3 MSCs/cm^2), cultured to subconfluency for approximately 4 days in DMEM, and subjected to adipogenic (0.5 mM […], 1 μM dexamethasone, 100 μM indomethacin, 10 μM insulin) or osteogenic (0.1 μM dexamethasone, 0.2 mM ascorbate-2-phosphate, 10 mM β-glycerophosphate) differentiation. […] Differentiation was graded according to microscopic analysis as follows: 0=no differentiation; 1=25% of the culture wells contain differentiated cells; 2=50% of the culture wells contain differentiated cells; 3=75% of the culture wells contain differentiated cells; 4=100% of the culture wells contain differentiated cells. Osteogenesis was determined by van Kossa staining, and the catalytic activity of ALP was determined.

MSCs [1] = experiment: Seahorse Metabolic Extracellular Flux Profiling (Cell Mito Stress Test); assay type: cell-based, human
Procedure: The impact of tasquinimod on cellular metabolism is investigated by using the Seahorse system (Agilent Technologies). MSCs are seeded in Seahorse 96-well plates. Cell Mito Stress Test (XF Cell Mito Stress Test Kit, Agilent Technologies) is performed following the standard protocol. Oxygen consumption rate (OCR) and Extracellular Acidification Rate (ECAR) are detected after injection of oligomycin ([…]), carbonyl cyanide-p-trifluoromethoxyphenylhydrazone (FCCP, […]), and the combination of rotenone and antimycin (Rot/AA, […]). OCR is measured with an XF96 analyzer and the Wave software (version 2.2.0).

[2] = test system: PD-L1 in healthy and CMML MSCs; experiment: Western blot of PD-L1 in healthy and CMML MSCs; assay type: cell-based, human; settings: 48 h; for PD-L1 expression in the absence of S100A9: tasquinimod alone
Procedure: Lane 1=untreated control; lane 2=treated with tasquinimod; lane 3=treated with S100A9; […] tasquinimod.
(§2) BM mononuclear cells were isolated by percoll gradient centrifugation and MSCs were grown as adherent monolayer in DMEM/10% FCS. Passages 2-5 were used for the experiments.
as §1
(§3) Whole cell lysates were prepared using RIPA lysis buffer containing proteinase inhibitors. Protein concentrations were determined using the BCA Protein Assay Kit. Equal protein amounts were separated by SDS-polyacrylamide gel electrophoresis and transferred to polyvinylidene fluoride membranes for detection of specific proteins using primary antibodies for IRAK1, NF-κB-p65, gasdermin and OXPHOS overnight at 4° C., following secondary antibodies HRP-conjugated goat anti-mouse IgG (Invitrogen) or donkey anti-rabbit IgG (GE Healthcare), respectively. The blots were incubated with ECL Plus Western Blotting reagent (Amersham) and the signals captured using a LAS3000 imaging system.

[3] = test system: MDS MSC co-cultured with hematopoietic progenitor cells; experiment: CFU assay with cells harvested after one week of MSC/HSPC co-culture; assay type: cell-based, human; settings: colonies counted after 2 weeks
Excerpt: FIG. 6b is a bar chart showing the number of colonies/300 cells in CFU assays performed using MDS MSC cells cocultured with hematopoietic progenitor cells, harvested after one week of co-culture in the presence of S100A9 or in the presence of both S100A9 and tasquinimod or in the absence of both S100A9 and tasquinimod (“control”), with 300 cells being plated in enriched methylcellulose medium with recombinant cytokines (MethoCult™ H4435, STEMCELL Technologies). Colonies were counted after 2 weeks and classified under a microscope or with the STEMvision™ system (STEMCELL Technologies). FIG. 6c is a bar chart showing the number of colonies/300 cells in CFU assays performed using MDS MSC cells and hematopoietic progenitor cells, harvested after one week of co-culture in the presence (“TASQ”) or absence (“without”) of tasquinimod, with 300 cells being plated in enriched methylcellulose medium with recombinant cytokines (MethoCult™ H4435, STEMCELL Technologies). Colonies were counted after 2 weeks and classified under a microscope or with the STEMvision™ system (STEMCELL Technologies). […] Colonies were counted after 2 weeks and classified under a microscope or with the STEMvision™ system (STEMCELL Technologies).

[4] = test system: IRAK1, NF-κB-p65 and gasdermin in MDS MSCs; experiment: Western blot of IRAK1, NF-κB-p65 and gasdermin in MDS MSCs treated with TNF-α with or without tasquinimod; assay type: cell-based, human; settings: MSC cultures, TNF-α 10 ng/ml, tasquinimod 10 μM, 48 h
Procedure: GAPDH (38 kDa) served as reference protein. Lane 1=treated with TNF-α; lane 2=treated with TNF-α and tasquinimod.
as §1, §3

[5] = test system: genetically modified mice (e.g. B6; 129-Trp53bp^tm1Jc/J and NUP98/HOXD13); experiment: In vivo validation in genetically modified mice developing signs of MDS; settings: MDS mouse models, blood counts weekly, bone marrow after 20 weeks
Procedure: The promising in vitro results are validated in vivo in different mouse models. In these models, genetically modified mice (e.g. B6; 129-Trp53bp^tm1Jc/J and NUP98/HOXD13) which develop typical signs of MDS such as anemia and cytopenia are treated with tasquinimod. Peripheral blood counts are recorded weekly and finally the bone marrow is analysed after 20 weeks.

[6] = test system: IRAK1, NF-κB-p65 and gasdermin in MDS MSCs; experiment: Western blot of IRAK1, NF-κB-p65 and gasdermin in MDS MSCs treated with S100A9 with or without tasquinimod; assay type: cell-based, human; settings: S100A9 1.5 μg/ml, tasquinimod 10 μM, 48 h
Procedure: GAPDH (38 kDa) served as reference protein. Lane 1=untreated control; lane 2=treated with S100A9; lane 3=treated with S100A9/tasquinimod.
as §2, §1, §3

[7] = test system: IL-1β, IL-18, Casp1 and PD-L1 mRNA in MDS MSCs; experiment: RT-PCR mRNA expression of IL-1β, IL-18, caspase 1 and PD-L1 in MDS MSCs treated with S100A9 with or without tasquinimod; assay type: cell-based, human; settings: 48 h
Procedure: FIG. 3 is a bar chart representing the mRNA expression levels of IL-1β, IL-18, Casp1 and PD-L1 by real-time PCR of MDS MSCs after 48 h treatment with tasquinimod only (TASQ), with S100A9 only (S100A9), or with both S100A9 and tasquinimod (S100A9+TASQ). Amplicons for IL-1β, IL-18, Casp1 and PD-L1 were normalized to endogenous GAPDH expression and the untreated MSCs were set to 1 (=control).
as §2, §1
RNA was isolated from MSC using RNeasy Mini Kit (Qiagen) and reverse transcribed into cDNA using RevertAid™ cDNA synthesis kit (Thermo Fisher) with oligo-dT primers. Relative target quantity was determined using the comparative CT (ΔΔCT) method. RT-PCR was performed using SYBR Green/ROX PCR master mix (Thermo) and target specific primers for caspasel, IL1β, IL18, PD-L1, PD-1 and GAPDH as housekeeping gene on a Taqman™ Fast 3500 cycler (Applied Biosystems). Amplicons were normalized to endogenous GAPDH control.

αSMA and NF-κB in MSCs = experiment: Immunofluorescence staining and confocal microscopy of S100A9/tasquinimod treated MSCs; assay type: cell-based, human
Procedure: as §1
S100A9/tasquninimod treated MSCs were fixed with 4% paraformaldehyde. Cells were permeabilized using PBS containing 0.1% Triton™ X-100 (T-PBS), blocked with T-PBS containing 10% FCS and 1% HSA (IF-Buffer) and incubated over night at 4° C. with antibodies against αSMA, NFκB or PD-L1. Secondary antibodies polyclonal sheep-anti-rabbit-Cy3 or polyclonal goat-anti-mouse-Cy2 were incubated for 1 h at room temperature. Cell nuclei were counterstained with DAPI. Imaging analysis was performed by confocal microscopy (LSM800, Carl Zeiss) and ZEN software.

PD-L1 = settings: Oncoimmunology 2016, Vol. 5, No. 6, e1145333; cited from earlier work
[8] = test system: MDS MSC co-cultured with hematopoietic progenitor cells; experiment: CAF-C assay, MSC/HSPC co-culture with pre-treated stromal layers; assay type: cell-based, human; settings: stromal layers pre-treated with S100A9 and tasquinimod, one to four weeks
Procedure: FIG. 6a is a bar chart showing quantification of CAF-C when co-culturing MDS MSC with hematopoietic progenitor cells, after one, two, three and four weeks without the presence of either S100A9 or tasquinimod (“without”), in the presence of tasquinimod (TASQ), in the presence of S100A9 (S100A9), and in the presence of both s100A9 and tasquinimod (S100A9+TASQ).
as §1
CAF-C assays were performed over four weeks using pre-treated healthy or MDS MSC layers. One thousand magnetically isolated CD34+ cells were added in StemMACS™ HSC-CFU complete medium (Miltenyi Biotec).

MSCs [9] = experiment: CellROX Deep Red Flow Cytometry Assay of ROS levels; assay type: cell-based, human
Procedure: The inflammatory micromilieu of the myelodysplastic bone marrow leads to increased ROS levels which may cause aberrant cellular function. Therefore, the effect of tasquinimod on ROS levels in MSCs is assayed using the CellROX™ Deep Red Flow Cytometry Assay kit (Thermo Fisher) according to the manufacturer's instructions.

[10] = MSCs, induced by S100A9, tasquinimod 10 μM
[11] = MDS MSCs, S100A9-induced increase, tasquinimod 10 μM

## COc1cccc2c1c(O)c(C(=O)N(C)c1ccc(C(F)(F)F)cc1)c(=O)n2C [tasquinimod, 4-hydroxy-5-methoxy-N,1-dimethyl-2-oxo-N-[4-(trifluoromethyl)phenyl]-1,2-dihydroquinoline-3-carboxamide]
PD-1
  PD-1 expression: inhibition
MDS MSCs; MDS MSCs, after 14 days of cultivation in differentiation medium
  decrease in number of adipocytes (Oil red O positive cells): 25-50%
MDS MSCs; MSC differentiation assay
  adipogenic differentiation: reducing
  osteogenic differentiation: improving
MSCs [1]
  Spare Respiratory Capacity: improved
  cellular stress: reduced cellular stress
[2]; MSC from CMML MDS patients
  PD-L1 expression in the absence of S100A9: downregulation of PD-L1
[2]; MSC from healthy volunteers
  PD-L1 expression in the absence of S100A9: downregulation of PD-L1
[2]; [10]
  PD-L1 expression at the protein level: suppressed
[3]
  number of CFUs: increased
[4]
  expression of IRAK1 (Western blot): inhibited the expression
  expression of NF-κB-p65 (Western blot): inhibited the expression
  expression of gasdermin (Western blot): inhibited the expression
[5]
  restoration of functional hematopoiesis: partly restore functional hematopoiesis
[6]
  expression of IRAK1 (Western blot): inhibited the expression
  expression of NF-κB-p65 (Western blot): inhibited the expression
  expression of gasdermin (Western blot): inhibited the expression
[7]; [11]
  mRNA expression of IL-1β: this increase was inhibited
  mRNA expression of IL-18: this increase was inhibited
  mRNA expression of caspase 1: this increase was inhibited
[7]; [10]
  PD-L1 expression at the mRNA level: suppressed
αSMA and NF-κB in MSCs
  NF-kB (nuclear) expression in MSCs: reduces
  αSMA expression in MSCs: reduces
PD-L1
  expression of PD-L1, previously reported: upregulate expression of PD-L1
[8]
  number of CAF-Cs: increased
MSCs [9]
  ROS levels in MSCs: block elevated ROS levels
